Here are results for 39 molecules from PubChem BioAssay AID504702 (Southern Research Specialized Biocontainment Screening …, 2011).

Assay [1] deals with M. tuberculosis H37Rv with meropenem, growth inhibition. Kind of assay: M. tuberculosis growth inhibition with meropenem, dose response, H37Rv, set 2 (AID 504702).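 For all read-outs here: growth read by Alamar Blue after 7 days plus overnight incubation.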 The note with it: for IC90: measured here: IC90 growth with meropenem.
Experiment in assay [2]: as above
The note with it: M. tuberculosis H37Rv with meropenem, growth inhibition; at 25 µM (top of the series).

Each structure is given as a SMILES string. “And” between values parts separate entries of the source, which are not always exact repeats. Equal entries are not always repeated. The source made the active and inactive calls. The rule behind the calls is not given here.

Turning to `CCOc1ccc2c(c1)c(C(C)=O)c(C)n2-c1ccccc1`, in assay [1], the concentration for half-maximal inhibition (IC50) (in general, the concentration that gives 50% inhibition) is 0.66 µM and 0.52 µM; the IC90 (in general, the concentration needed for an effect of 90%) was > 18.8 µM and 2.79 µM.
As to `COc1cccc(NC(=O)C2CC2)c1`, in assay [1], the IC50 is 0.58 µM and 3.28 µM; the IC90 was over 25 µM.
`COc1ccc2nc(NC(=O)C(C)Oc3ccccc3)sc2c1` (centres undefined): in assay [2], the growth inhibition was -2.23% (inactive).
Turning to `COc1ccc2[nH]c(C)cc2c1`, the growth inhibition in assay [2] was 0.56% (inactive).
In the case of `Cc1onc(-c2c(Cl)cccc2Cl)c1/C(N)=N/OC(=O)C1CC1`, in assay [1], the IC50 is 1.47 µM and the concentration for an effect of 90% (IC90) is over 25 µM.
For `CC(=O)c1c(C)n(-c2ccccc2C)c2ccc(O)cc12`, the growth inhibition in assay [2] was -1.1% (inactive).
Same read-out and setting: then `CCOc1ccc2nc(NC(=O)Cc3ccc(OC)cc3)sc2c1`, with -9.77% (inactive).
Turning to `O=C(O)CCC(=O)Nc1nc2ccccc2s1`, in assay [2], the growth inhibition was -2.73% (inactive).
Take `N/C(=N\c1nc2ccccc2o1)NC(=O)c1ccccc1`: the growth inhibition in assay [2] is 2.3% (inactive).
For `O=C(COc1ccc2ccccc2c1)Nc1nc2ccccc2[nH]1`, in assay [1], the 50% inhibitory concentration (IC50) was 8.87 µM and the IC90 is over 25 µM.
In the case of `COC(=O)c1c(C)n(-c2ccccc2)c2ccc(O)cc12`, in assay [1], the IC50 was 8.43 µM and the 90% effect concentration (IC90) is over 18.8 µM.
On to `Cc1ccccc1OCC(=O)Nc1noc(-c2ccccc2)n1`, for which the growth inhibition in assay [2] was -4.18% (inactive).
Regarding `Cc1ccccc1OCC(=O)Nc1ncn[nH]1`, the growth inhibition in assay [2] was 0.97% (inactive).
In the case of `N/C(=N\c1nc2ccccc2o1)NC(=O)c1ccccc1F`, the growth inhibition in assay [2] is -5.8% (inactive).
With `COC(=O)c1c(C)[nH]c2ccc(Cl)cc12`, in assay [2], the growth inhibition was -8.83% (inactive).
With `COC(=O)c1sc(-c2ccc(C(C)(C)C)cc2)cc1NC(=O)CCC(=O)O`, in assay [1], the IC50 is 3.46 µM and 7.32 µM; the IC90 is over 25 µM.
For the molecule `Cc1c(OCc2ccc(C(=O)O)cc2)ccc2c(-c3ccccc3)cc(=O)oc12`, in assay [1], the half-inhibitory concentration (IC50) was 3.3 µM and 3.99 µM; the IC90 is over 25 µM.
In assay [1], `CCOC(=O)c1cnc2cc(-c3ccc(C(C)(C)C)cc3)nn2c1N` gave an IC90 of over 25 µM.
As for `CC(C)(Oc1ccc(Cl)cc1)C(=O)Nc1nc2ccccc2s1`, the growth inhibition in assay [2] was 1.22% (inactive).
On to `CCOc1ccc2c(c1)c(C(C)=O)c(C)n2-c1cccc(Cl)c1`, for which, in assay [1], the IC50 is 10.5 µM and the concentration for an effect of 90% (IC90) was over 25 µM.
For the molecule `Cc1ccc(OCC(=O)Nc2ccc3c4c(cccc24)CC3)c(C)c1`, in assay [1], the concentration for half-maximal inhibition (IC50) was 0.91 µM and 6.11 µM; the concentration for an effect of 90% (IC90) was over 25 µM.
Consider `CN(NC(=O)c1c(Cl)cccc1Cl)c1cccc(Cl)n1`, for which, in assay [1], the half-maximal inhibitory concentration (IC50) was 15.5 µM and the concentration for an effect of 90% (IC90) is over 25 µM.
For the molecule `COc1ccc2c(c1)cc(C)n2-c1ccccc1`, in assay [1], the IC50 was 6.88 µM and the IC90 is over 25 µM.
Consider `CCOC(=O)COc1nc(-c2ccc(Cl)cc2)cc(-c2ccco2)c1C#N`, for which, in assay [1], the IC50 is 6.8 µM and 4.07 µM; the concentration for an effect of 90% (IC90) was over 25 µM.
`CC(=O)c1c(C)n(-c2ccccc2)c2ccc(OS(=O)(=O)C(F)(F)F)cc12` gave an IC90 in assay [1] of over 25 µM.
Regarding `N/C(=N\c1nc2ccccc2o1)NC(=O)c1ccc(F)cc1`, in assay [1], the half-inhibitory concentration (IC50) is 9.64 µM and the concentration for an effect of 90% (IC90) was over 25 µM.
The corresponding values for `COc1cccc(NC(=S)Nc2cc(C)cc(C)n2)c1` are 7.2 µM and over 25 µM.
With `COc1ccc(Cl)cc1C(=O)Nc1nc2ccccc2[nH]1`, in assay [1], the concentration for half-maximal inhibition (IC50) is 16.2 µM and the IC90 is over 25 µM.
Regarding `COc1ccc(C(=O)Nc2ccc3nc(N4CCCCC4)cc(C)c3c2)c(OC)c1`, in assay [1], the IC50 was 17.6 µM and the concentration for an effect of 90% (IC90) is over 25 µM.
Take `O=C(CSc1n[nH]c(=O)n1C1CC1)c1ccc2c(c1)OCCO2`: in assay [1], the concentration for half-maximal inhibition (IC50) is 4.57 µM and the concentration for an effect of 90% (IC90) is over 25 µM.
As for `O=C(COC(=O)C1=COCCO1)Nc1ccc2c(c1)OCO2`, in assay [1], the IC50 was 9.76 µM and the IC90 was over 25 µM.
For the molecule `Cc1ccc(OCC(=O)Nc2cccc3ccccc23)c(C)c1`, in assay [1], the IC50 is 20.5 µM and the IC90 was over 25 µM.
Take `CC(=O)c1c(C)n(-c2ccccc2)c2ccc(O)cc12`: in assay [1], the 50% inhibitory concentration (IC50) was 20.1 µM and the 90% effect concentration (IC90) was over 25 µM.
Regarding `c1ccc(Nc2ncnc3c2oc2ccccc23)cc1`, in assay [1], the IC50 was 5.29 µM and the 90% effect concentration (IC90) was over 25 µM.
For the molecule `COc1ccc2oc(C(=O)Nc3nc4ccccc4[nH]3)c(C)c2c1`, the IC90 in assay [1] was over 25 µM.
With `CC(=O)c1c(C)n(-c2ccccc2)c2ccccc12`, in assay [1], the IC50 is 11.6 µM and the concentration for an effect of 90% (IC90) is over 25 µM.
The corresponding values for `CCOc1ccc2c(c1)c(CC)c(C)n2-c1ccccc1` are 4.42 µM and over 25 µM.
Take `c1ccc(OCc2nnc(-c3ccccc3)o2)cc1`: in assay [1], the IC50 is 15 µM and 5.67 µM; the IC90 is over 25 µM.
As to `CCOc1ccc2c(c1)c(C(C)=O)c(C)n2-c1ccccc1C`, in assay [1], the IC50 is 3.43 µM and the 90% effect concentration (IC90) was 12.1 µM.
